In patent US20250145633A1, “SUBSTITUTED FURANOPYRIMIDINE COMPOUNDS AS PDE1 INHIBITORS” (Dart NeuroScience, LLC, priority 2017, published 2025):
Counter-ions that a name gives are not always drawn.

biological target: human PDE1B enzyme (Homo sapiens (Human), UniProt Q01064); assay: IMAP TR-FRET PDE1B enzymatic assay; assay type: biochemical; details: negative log of half-maximal molar inhibitory concentration; 200 nM FAM-cAMP; values given as bins
How it was run: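 Full-length GST-tagged human PDE1B (250 pg/well) in IMAP BSA buffer with 10 U/ml calmodulin and 2.5 mM CaCl2; compound pre-incubated 5 min at room temperature, then 200 nM (final) FAM-cAMP for 30 min. IMAP binding reagent/Tb added, 1 h; TR-FRET 520/490 ratio read. IC50 from sigmoidal dose-response fit.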

In the case of `Cc1oc2ncnc(NC3(C)CC3)c2c1C(=O)NC(C)(C)CCO` [Example 135, N-(4-Hydroxy-2-methylbutan-2-yl)-6-methyl-4-[(1-methylcyclopropyl)amino]furo[2,3-d]pyrimidine-5-carboxamide], the “PDE1b (pIC50)” value is reported as >8.
With `Cc1cccc(CNC(=O)c2c(C)oc3ncnc(NC4(C)CC4)c23)c1C` [Example 238, N-[(2,3-Dimethylphenyl)methyl]-6-methyl-4-[(1-methylcyclopropyl)amino]furo[2,3-d]pyrimidine-5-carboxamide] the “PDE1b (pIC50)” value was >8.
For `COc1ccc(C2(NC(=O)c3c(C)oc4ncnc(NC5(C)CC5)c34)CC2)cc1F` [Example 298, N-[1-(3-Fluoro-4-methoxyphenyl)cyclopropyl]-6-methyl-4-[(1-methylcyclopropyl)amino]furo[2,3-d]pyrimidine-5-carboxamide], the “PDE1b (pIC50)” value was >8.
`Cc1oc2ncnc(NC3(C)CC3)c2c1C(=O)N1CCC(c2ccc(Br)cn2)C1` (stereo not shown) [Example 373, 5-[3-(5-Bromopyridin-2-yl)pyrrolidine-1-carbonyl]-6-methyl-N-(1-methylcyclopropyl)furo[2,3-d]pyrimidin-4-amine] was tested, and the “PDE1b (pIC50)” value was >8.
In the case of `Cc1oc2ncnc(NC3(C)CC3)c2c1C(=O)N1CCN(c2ccc(F)cc2)CC1` [Example 61, 5-[4-(4-Fluorophenyl)piperazine-1-carbonyl]-6-methyl-N-(1-methylcyclopropyl)furo[2,3-d]pyrimidin-4-amine], the “PDE1b (pIC50)” value is reported as >8.

same assay, conditions: negative log of half-maximal molar inhibitory concentration; 200 nM FAM-cAMP; values given as bins; read-out: PDE1b (pIC50) (converted)

`Cc1oc2ncnc(NC3(C)CC3)c2c1C(=O)NCCc1cccs1` [Example 222, 6-Methyl-4-[(1-methylcyclopropyl)amino]-N-[2-(thiophen-2-yl)ethyl]furo[2,3-d]pyrimidine-5-carboxamide] and `Cc1ccc(CCNC(=O)c2c(C)oc3ncnc(NC4(C)CC4)c23)cc1` [Example 235, 6-Methyl-4-[(1-methylcyclopropyl)amino]-N-[2-(4-methylphenyl)ethyl]furo[2,3-d]pyrimidine-5-carboxamide] fall in the same range of IC50: 10 to 100 nM for the first, 10 to 100 nM for the second.

`Cc1oc2ncnc(NC3(C)CC3)c2c1C(=O)NC1CCOC(C)(C)C1` (stereo not shown) [Example 110, N-(2,2-Dimethyloxan-4-yl)-6-methyl-4-[(1-methylcyclopropyl)amino]furo[2,3-d]pyrimidine-5-carboxamide] and `Cc1oc2ncnc(NC3(C)CC3)c2c1C(=O)NC1CCOCC1` [Example 108, 6-Methyl-4-[(1-methylcyclopropyl)amino]-N-(oxan-4-yl)furo[2,3-d]pyrimidine-5-carboxamide] fall in the same range of IC50: 10 to 100 nM for the first, 10 to 100 nM for the second.

`COc1ccc(CCNC(=O)c2c(C)oc3ncnc(NC4(C)CC4)c23)cc1OC` [Example 545, N-[2-(3,4-Dimethoxyphenyl)ethyl]-6-methyl-4-[(1-methylcyclopropyl)amino]furo[2,3-d]pyrimidine-5-carboxamide] and `COc1ccc(NC(=O)c2c(C)oc3ncnc(NC4(C)CC4)c23)c(C)c1` [Example 244, N-(4-Methoxy-2-methylphenyl)-6-methyl-4-[(1-methylcyclopropyl)amino]furo[2,3-d]pyrimidine-5-carboxamide] fall in the same range of IC50: 10 to 100 nM for the first, 10 to 100 nM for the second.

`Cc1oc2ncnc(NC3(C)CC3)c2c1C(=O)N1CCC(Oc2ccc(F)cc2)C1` (stereo not shown) [Example 399, 5-[3-(4-Fluorophenoxy)pyrrolidine-1-carbonyl]-6-methyl-N-(1-methylcyclopropyl)furo[2,3-d]pyrimidin-4-amine] and `Cc1oc2ncnc(NC3(C)CC3)c2c1C(=O)N1CC(c2ccc(F)cn2)C1` [Example 31, 5-[3-(5-Fluoropyridin-2-yl)azetidine-1-carbonyl]-6-methyl-N-(1-methylcyclopropyl)furo[2,3-d]pyrimidin-4-amine] fall in the same range of IC50: 10 to 100 nM for the first, 10 to 100 nM for the second.

`COc1ncnc2c1CCN(C(=O)c1c(C)oc3ncnc(NC4(C)CC4)c13)C2` [Example 4, (4-Methoxy-5,8-dihydropyrido[3,4-d]pyrimidin-7(6H)-yl)(6-methyl-4-((1-methylcyclopropyl)amino)furo[2,3-d]pyrimidin-5-yl)methanone] and `Cc1oc2ncnc(NC3(C)CC3)c2c1C(=O)N1CCc2c(ncnc2NCCF)C1` [Example 7, 5-{4-[(2-Fluoroethyl)amino]-5H,6H,7H,8H-pyrido[3,4-d]pyrimidine-7-carbonyl}-6-methyl-N-(1-methylcyclopropyl)furo[2,3-d]pyrimidin-4-amine trifluoroacetate] fall in the same range of IC50: 10 to 100 nM for the first, 10 to 100 nM for the second.

`Cc1cccc(NC(=O)c2c(C)oc3ncnc(NC4(C)CC4)c23)c1` [Example 180, 6-Methyl-4-[(1-methylcyclopropyl)amino]-N-(3-methylphenyl)furo[2,3-d]pyrimidine-5-carboxamide] and `Cc1nc2cc(NC(=O)c3c(C)oc4ncnc(NC5(C)CC5)c34)ccc2o1` [Example 651, 6-Methyl-N-(2-methyl-1,3-benzoxazol-5-yl)-4-[(1-methylcyclopropyl)amino]furo[2,3-d]pyrimidine-5-carboxamide] fall in the same range of IC50: 10 to 100 nM for the first, 10 to 100 nM for the second.

Compared with `Cc1oc2ncnc(NC3(C)CC3)c2c1C(=O)N1CCOC(c2cnn(C)c2)C1` (stereo not shown) [Example 121, 6-Methyl-5-[2-(1-methyl-1H-pyrazol-4-yl)morpholine-4-carbonyl]-N-(1-methylcyclopropyl)furo[2,3-d]pyrimidin-4-amine], `Cc1oc2ncnc(NC3(C)CC3)c2c1C(=O)N1CCC(c2ncc(F)cn2)CC1` [Example 356, 5-[4-(5-Fluoropyrimidin-2-yl)piperidine-1-carbonyl]-6-methyl-N-(1-methylcyclopropyl)furo[2,3-d]pyrimidin-4-amine] is lower in IC50: 100 to 1000 nM for the first, 10 to 100 nM for the second.

`Cc1oc2ncnc(NC3(C)CC3)c2c1C(=O)NCCC1CCCCC1` [Example 225, N-(2-Cyclohexylethyl)-6-methyl-4-[(1-methylcyclopropyl)amino]furo[2,3-d]pyrimidine-5-carboxamide] and `Cc1oc2ncnc(NC3(C)CC3)c2c1C(=O)NCCC(C)C` [Example 168, 6-Methyl-N-(3-methylbutyl)-4-[(1-methylcyclopropyl)amino]furo[2,3-d]pyrimidine-5-carboxamide] fall in the same range of IC50: 10 to 100 nM for the first, 10 to 100 nM for the second.

`Cc1oc2ncnc(NC3(C)CC3)c2c1C(=O)NCc1ccc(O)cn1` [Example 10, N-[(5-Hydroxypyridin-2-yl)methyl]-6-methyl-4-[(1-methylcyclopropyl)amino]furo[2,3-d]pyrimidin-5-carboxamide] and `Cc1oc2ncnc(NC3(C)CC3)c2c1C(=O)Nc1nccs1` [Example 143, 6-Methyl-4-[(1-methylcyclopropyl)amino]-N-(1,3-thiazol-2-yl)furo[2,3-d]pyrimidine-5-carboxamide] fall in the same range of IC50: 10 to 100 nM for the first, 10 to 100 nM for the second.

`CCC(CC)NC(=O)c1c(C)oc2ncnc(NC3(C)CC3)c12` [Example 169, 6-Methyl-4-[(1-methylcyclopropyl)amino]-N-(pentan-3-yl)furo[2,3-d]pyrimidine-5-carboxamide] and `Cc1oc2ncnc(NC3(C)CC3)c2c1C(=O)NCC1(C)COC1` [Example 93, 6-Methyl-4-[(1-methylcyclopropyl)amino]-N-[(3-methyloxetan-3-yl)methyl]furo[2,3-d]pyrimidine-5-carboxamide] fall in the same range of IC50: 10 to 100 nM for the first, 10 to 100 nM for the second.

`Cc1oc2ncnc(NC3(C)CC3)c2c1C(=O)N1CCc2cccc(OCF)c2C1` [Example 766, 5-[8-(Fluoromethoxy)-1,2,3,4-tetrahydroisoquinoline-2-carbonyl]-6-methyl-N-(1-methylcyclopropyl)furo[2,3-d]pyrimidin-4-amine] and `Cc1oc2ncnc(NC3(C)CC3)c2c1C(=O)N1Cc2cc(Br)cnc2C1` [Example 742, 5-{3-Bromo-5H,6H,7H-pyrrolo[3,4-b]pyridine-6-carbonyl}-6-methyl-N-(1-methylcyclopropyl)furo[2,3-d]pyrimidin-4-amine] fall in the same range of IC50: 10 to 100 nM for the first, 10 to 100 nM for the second.

First: Cc1oc2ncnc(NC3(C)CC3)c2c1C(=O)Nc1cnn(Cc2ccccn2)c1 [Example 472, 6-Methyl-4-[(1-methylcyclopropyl)amino]-N-[1-(pyridin-2-ylmethyl)-1H-pyrazol-4-yl]furo[2,3-d]pyrimidine-5-carboxamide]
Second: Cc1oc2ncnc(NC3(C)CC3)c2c1C(=O)N1CCCN(c2ccccn2)CC1 [Example 158, 6-Methyl-N-(1-methylcyclopropyl)-5-[4-(pyridin-2-yl)-1,4-diazepane-1-carbonyl]furo[2,3-d]pyrimidin-4-amine]
The IC50 of the first is lower: 10 to 100 nM for the first, 100 to 1000 nM for the second.

`Cc1oc2ncnc(NC3(C)CC3)c2c1C(=O)N1CC(c2ccc(C#N)cc2)C1` [Example 32, 4-(1-{6-Methyl-4-[(1-methylcyclopropyl)amino]furo[2,3-d]pyrimidine-5-carbonyl}azetidin-3-yl)benzonitrile] and `Cc1oc2ncnc(NC3(C)CC3)c2c1C(=O)NC(C)c1ccc(F)cc1` (stereo in doubt) [Example 484, N-[(1R)-1-(4-Fluorophenyl)ethyl]-6-methyl-4-[(1-methylcyclopropyl)amino]furo[2,3-d]pyrimidine-5-carboxamide] fall in the same range of IC50: 10 to 100 nM for the first, 10 to 100 nM for the second.

`Cc1oc2ncnc(NC3(C)CC3)c2c1C(=O)NC(C)c1ncc(F)cn1` (stereo in doubt) [Example 615, N-[(1R)-1-(5-Fluoropyrimidin-2-yl)ethyl]-6-methyl-4-[(1-methylcyclopropyl)amino]furo[2,3-d]pyrimidine-5-carboxamide] and `COCC1(NC(=O)c2c(C)oc3ncnc(NC4(C)CC4)c23)CC1` [Example 148, N-[1-(Methoxymethyl)cyclopropyl]-6-methyl-4-[(1-methylcyclopropyl)amino]furo[2,3-d]pyrimidine-5-carboxamide] fall in the same range of IC50: 10 to 100 nM for the first, 10 to 100 nM for the second.

`Cc1oc2ncnc(NC3(C)CC3)c2c1C(=O)N1Cc2cnc(-c3ccc(F)cc3)nc2C1` [Example 37, 5-[2-(4-Fluorophenyl)-5H,6H,7H-pyrrolo[3,4-d]pyrimidine-6-carbonyl]-6-methyl-N-(1-methylcyclopropyl)furo[2,3-d]pyrimidin-4-amine] was tested, and the IC50 was 100 to 1000 nM.
